US3981903A, “Cyclopropane carboxylic acid esters” (Sumitomo Chemical Company, Limited, priority 1973, dated 1976)
In brackets after ≈: the same amount, converted by molar mass.

Columns and labels:
Assay type in all cases: in vivo
[1] = tested on: diamondback moths; assay: Test Example 2: pesticidal effects on diamondback moth larvae, sprayed Chinese cabbage; details: for LC50: Plutella xylostella, 48 h, fourth instar larvae, after 2 days, from 20 % emulsifiable concentrates, read-out: LC50 (50 % lethal concentration); for Ratio of effect: relative to DDVP, defined as 1.0
Procedure: The present compounds (1), (2), (3) and (4) were individually formulated according to ordinary procedure into 20 % emulsifiable concentrates. As a control, DDVP was also formulated into a 20 % emulsifiable concentrate.
Each of the above-mentioned emulsifiable concentrates was diluted with water to a test concentration, and 10 ml. of the resulting dilution was sprayed to the potted Chinese cabbages at the stage of 3 to 4 leaves. Subsequently, the cabbage leaves were put in a glass Petri dish of 14 cm. in diameter and 7 cm. in height, and 10 diamondback moth larvae at the fourth instar stage were liberated into the dish. After 2 days, the number of dead and alive larvae was counted to calculate the value of LC50 (50 % lethal concentration).

[2] = tested on: green rice leafhoppers; assay: Test Example 1: pesticidal effect on green rice leafhoppers, sprayed rice seedlings; details: for Mortality: 20 % emulsifiable concentrate diluted to 200 times, next day, 1440 min; for KT50 (50 % knock-down time): 20 % emulsifiable concentrate diluted with water to 200 times
Procedure: The present compounds (1), (2), (3), (4), (5) and (6) were individually formulated according to ordinary procedure into 20 % emulsifiable concentrates. As a standard compound, 3,4-dimethylphenyl-N-methyl carbamate [hereinafter referred to as "Meobal" (registered trademark of Sumitomo Chemical Co., Ltd.)] was also formulated into a 20 % emulsifiable concentrate.
In flower pots of 9 cm. in diameter, about 20 rice seedlings per pot were grown to the stage of 3 to 4 leaves. Each of the above-mentioned emulsifiable concentrates was diluted with water to 200 times, and sprayed to the seedlings by use of a turn table. After air-drying, the seedlings were put in a 5 liter glass beaker, which was then covered at the top with gauze. Thereafter, 20 green rice leafhoppers were liberated into the beaker, and the number of knocked down insects was counted with lapse of time to calculate the value of KT50 (50 % knock-down time). On the next day, the number of dead and alive insects was counted to calculate the mortality.

[3] = tested on: housefly adults; assay: Test Example 3: pesticidal effects on housefly adults, Campbell's turn table, 0.2 % oil preparations; details: 0.2 % oil preparation, 5 ml, present compounds as dl-trans isomers; for mortality at 0.2 %: Musca domestica, 24 h, after a day
Procedure: dl-Trans isomers of the present compounds (1), (2), (3) and (4) were individually formulated by use of deodorized kerosene into 0.2 % oil preparations. As a control, pyrethrin was also formulated into a 0.2 % oil preparation.
Using the Campbell's turn table [Soap and Sanitary Chemicals; Vol. 14, No. 119 (1938)], 5 ml. of each of the above-mentioned oil preparations was sprayed. When 20 seconds had elapsed after the spraying, the shutter was opened, and a group of about 100 housefly adults were exposed to the settling mist for 10 minutes. Subsequently, the number of knocked down houseflies was counted to calculate the knock-down ratio. The houseflies were then transferred to another cage, fed and allowed to stand for a day at room temperature. Thereafter, the number of dead and alive houseflies was counted to calculate the mortality.

Compound: CC1(C)C(C=C(Cl)Cl)C1C(=O)OC/C=C(\Cl)Cc1ccccc1 (stereo not drawn) [(1), 3-Chloro-4-phenyl-trans-2-butene-1-yl 2',2'-dimethyl-3'-(2",2"-dichlorovinyl)-cyclopropanecarboxylate]
- LC50 [1]: 43 µg/mL (≈ 115 µM)
- Ratio of effect [1]: 8.6
- Mortality [2]: 100%
- KT50 (50 % knock-down time) [2]: 19 min
- Ratio of knocked down houseflies after 10 minutes [3]: 100%
- mortality at 0.2 % [3]: 100%

Compound: CNC(=O)Oc1ccc(C)c(C)c1 [Meobal, 3,4-dimethylphenyl-N-methyl carbamate, reference compound]
- KT50 (50 % knock-down time) [2]: 24 min

Compound: CC1(C)C(C=C(Cl)Cl)C1C(=O)OCC=C(Cl)Cc1ccccc1 (stereo not drawn) [(5), 3-Chloro-4-phenyl-trans-2-butene-1-yl d-trans-2',2'-dimethyl-3' -(2",2"-dichlorovinyl)-cyclopropanecarboxylate]
- Mortality [2]: 100%
- KT50 (50 % knock-down time) [2]: 9 min

Compound: CC1(C)C(C=C(Cl)Cl)C1C(=O)OC/C=C(\Br)Cc1ccccc1 (stereo not drawn) [(2), 3-Bromo-4-phenyl-trans-2-butene-1-yl 2',2'-dimethyl-3'-(2",2"-dichlorovinyl)-cyclopropanecarboxylate]
- LC50 [1]: 56 µg/mL (≈ 134 µM)
- Ratio of effect [1]: 6.6
- Mortality [2]: 100%
- KT50 (50 % knock-down time) [2]: 13 min
- Ratio of knocked down houseflies after 10 minutes [3]: 100%
- mortality at 0.2 % [3]: 99%

Compound: CC(=CCOC(=O)C1C(C=C(Cl)Cl)C1(C)C)Cc1ccccc1 (stereo not drawn) [(4), 3-Methyl-4-phenyl-2-butene-1-yl 2',2'-dimethyl-3'-(2",2"-dichlorovinyl)-cyclopropanecarboxylate]
- LC50 [1]: 75 µg/mL (≈ 212 µM)
- Ratio of effect [1]: 4.9
- Mortality [2]: 100%
- KT50 (50 % knock-down time) [2]: 15 min
- Ratio of knocked down houseflies after 10 minutes [3]: 100%
- mortality at 0.2 % [3]: 98%

Compound: CC1(C)C(C=C(Cl)Cl)C1C(=O)OC/C=C/Cc1ccccc1 (stereo not drawn) [(3), 4-Phenyl-trans-2-butene-1-yl 2',2'-dimethyl-3'-(2",2"-dichlorovinyl)-cyclopropanecarboxylate]
- LC50 [1]: 48 µg/mL (≈ 141 µM)
- Ratio of effect [1]: 7.7
- Mortality [2]: 100%
- KT50 (50 % knock-down time) [2]: 11 min
- Ratio of knocked down houseflies after 10 minutes [3]: 100%
- mortality at 0.2 % [3]: 100%

Compound: COP(=O)(OC)OC=C(Cl)Cl [DDVP, 0,0-Dimethyl 0-2,2-dichlorovinyl phosphate, reference compound]
- LC50 [1]: 370 µg/mL

Compound: CC1(C)C(C=C(Cl)Cl)C1C(=O)OC/C(Cl)=C(\Cl)Cc1ccccc1 (stereo not drawn) [(6), 2,3-Dichloro-4-phenyl-trans-2-butene-1-yl 2',2'-dimethyl-3'-(2",2"-dichlorovinyl)-cyclopropanecarboxylate]
- Mortality [2]: 100%
- KT50 (50 % knock-down time) [2]: 21 min
